Consider 18 molecules from ChEMBL document CHEMBL3046566, “In vitro antimycobacterial activity of novel N-(4-(substituted phenyl amino)-6-(pyridin-2-ylamino)-1,3,5-triazin-2-yl)isonicotinohydrazide” (Med Chem Res, 2011).

Series [1] relates to Mycobacterium tuberculosis. In words: Growth inhibition of Mycobacterium tuberculosis H37Rv ATCC 27294 at 0.1109 uM by radiometric analysis. Type of series: functional. The conditions noted are these: read-out: GI.
The subject of series [2] is Mycobacterium tuberculosis. In words: Growth inhibition of Mycobacterium tuberculosis H37Rv ATCC 27294 at 0.0418 uM by radiometric analysis. Format: functional. The conditions noted are these: read-out: GI.
The subject of series [3] is Vero. In words: Cytotoxicity against Chlorocebus aethiops (African green monkey) Vero cells up to 62.5 ug/ml after 72 hr by MTT assay. The conditions noted are these: chlorocebus sabaeus. Format: cell-based.
The test system of series [4] is Mycobacterium tuberculosis. In words: Antimycobacterial activity against Mycobacterium tuberculosis H37Rv ATCC 27294 by microdilution alamar blue assay. Type of series: functional. (In general: Dilution methods test growth across graded concentrations, often in twofold steps.)
Series [5] relates to Mycobacterium tuberculosis. Kind of series: Growth inhibition of Mycobacterium tuberculosis H37Rv ATCC 27294 at 0.7110 uM by radiometric analysis. Format: functional. The conditions noted are these: read-out: GI.
Series [6] concerns Mycobacterium tuberculosis. Kind of series: Growth inhibition of Mycobacterium tuberculosis H37Rv ATCC 27294 at 0.6890 uM by radiometric analysis. Type of series: functional. The conditions noted are these: read-out: GI.
The test system of series [7] is Mycobacterium tuberculosis. Kind of series: Growth inhibition of Mycobacterium tuberculosis H37Rv ATCC 27294 at 0.1277 uM by radiometric analysis. Type of series: functional. The conditions noted are these: read-out: GI.
The test system of series [8] is Mycobacterium tuberculosis. Kind of series: Growth inhibition of Mycobacterium tuberculosis H37Rv ATCC 27294 at 0.1229 uM by radiometric analysis. Type of series: functional. The conditions noted are these: read-out: GI.
Series [9] deals with Mycobacterium tuberculosis. In words: Growth inhibition of Mycobacterium tuberculosis H37Rv ATCC 27294 at 0.0311 uM by radiometric analysis. Type of series: functional. The conditions noted are these: read-out: GI.
Series [10] deals with Mycobacterium tuberculosis. In words: Growth inhibition of Mycobacterium tuberculosis H37Rv ATCC 27294 at 0.0211 uM by radiometric analysis. Type of series: functional. The conditions noted are these: read-out: GI.
Series [11] deals with Mycobacterium tuberculosis. In words: Growth inhibition of Mycobacterium tuberculosis H37Rv ATCC 27294 at 0.1214 uM by radiometric analysis. Format: functional. The conditions noted are these: read-out: GI.
In series [12] the test system is Mycobacterium tuberculosis. Kind of series: Growth inhibition of Mycobacterium tuberculosis H37Rv ATCC 27294 at 0.0614 uM by radiometric analysis. The conditions noted are these: read-out: GI. Format: functional.
Series [13] concerns Mycobacterium tuberculosis. Kind of series: Growth inhibition of Mycobacterium tuberculosis H37Rv ATCC 27294 at 0.0250 uM by radiometric analysis. The conditions noted are these: read-out: GI. Type of series: functional.
For series [14], the system named is Mycobacterium tuberculosis. In words: Growth inhibition of Mycobacterium tuberculosis H37Rv ATCC 27294 at 0.0677 uM by radiometric analysis. Format: functional. The conditions noted are these: read-out: GI.
Series [15] has as its system Mycobacterium tuberculosis. In words: Growth inhibition of Mycobacterium tuberculosis H37Rv ATCC 27294 at 0.1218 uM by radiometric analysis. Type of series: functional. The conditions noted are these: read-out: GI.
For series [16], the system named is Mycobacterium tuberculosis. In words: Growth inhibition of Mycobacterium tuberculosis H37Rv ATCC 27294 at 0.1127 uM by radiometric analysis. Type of series: functional. The conditions noted are these: read-out: GI.
In series [17] the test system is Mycobacterium tuberculosis. Kind of series: Growth inhibition of Mycobacterium tuberculosis H37Rv ATCC 27294 at 0.0650 uM by radiometric analysis. Type of series: functional. The conditions noted are these: read-out: GI.
Series [18] relates to Mycobacterium tuberculosis. Kind of series: Growth inhibition of Mycobacterium tuberculosis H37Rv ATCC 27294 at 0.0550 uM by radiometric analysis. The conditions noted are these: read-out: GI. Type of series: functional.
Series [19] concerns Mycobacterium tuberculosis. Kind of series: Growth inhibition of Mycobacterium tuberculosis H37Rv ATCC 27294 at 0.1110 uM by radiometric analysis. Format: functional. The conditions noted are these: read-out: GI.
Series [20] relates to Mycobacterium tuberculosis. In words: Growth inhibition of Mycobacterium tuberculosis H37Rv ATCC 27294 at 0.1211 uM by radiometric analysis. Format: functional. The conditions noted are these: read-out: GI.

≈ marks a conversion by molar mass, not a printed value.

Consider `O=C(NNc1nc(Nc2cccc([N+](=O)[O-])c2)nc(Nc2ccccn2)n1)c1ccncc1`, for which the inhibition of growth at 0.1109 µM in series [1] was found to be 72%. On to `NS(=O)(=O)c1ccc(Nc2nc(NNC(=O)c3ccncc3)nc(Nc3ccccn3)n2)cc1`, for which the inhibition of growth at 0.0418 µM in series [2] came to 90%. In addition, in [3], the Activity entry was “Non-toxic”. For the same molecule, the MIC (in general, the smallest concentration in the dilution series that meets the test's criterion for growth inhibition) in [4] was determined as 6 µg/mL (≈ 12.5 µM).

With `O=C(NNc1nc(Nc2ccccc2)nc(Nc2ccccn2)n1)c1ccncc1`, in series [5], the inhibition of growth at 0.711 µM stood at 71%. With `COc1cccc(Nc2nc(NNC(=O)c3ccncc3)nc(Nc3ccccn3)n2)c1`, the inhibition of growth at 0.689 µM in series [6] was found to be 83%. On to `O=C(NNc1nc(Nc2ccc(O)cc2)nc(Nc2ccccn2)n1)c1ccncc1`, for which, in [7], the inhibition of growth at 0.1277 µM stood at 77%. In the case of `O=C(NNc1nc(Nc2ccccn2)nc(Nc2ccccc2O)n1)c1ccncc1`, in series [8], the inhibition of growth at 0.1229 µM turned out to be 71%.

Consider `O=C(NNc1nc(Nc2ccccn2)nc(Nc2c(Cl)cccc2Cl)n1)c1ccncc1`, for which, in [9], the inhibition of growth at 0.0311 µM was determined as 91%. In addition, the Activity entry in [3] is “Non-toxic”. In addition, the MIC in series [4] worked out at 4.69 µg/mL (≈ 10 µM). `COc1ccc(Nc2nc(NNC(=O)c3ccncc3)nc(Nc3ccccn3)n2)cc1`: the Activity result in series [3] is recorded as “Non-toxic”. Besides, in series [4], the MIC amounted to 4.11 µg/mL (≈ 9.57 µM). For the same molecule, in series [10], the inhibition of growth at 0.0211 µM was determined as 94%.

For the molecule `O=C(NNc1nc(Nc2ccccn2)nc(Nc2ccccc2[N+](=O)[O-])n1)c1ccncc1`, the inhibition of growth at 0.1214 µM in series [11] worked out at 67%. As for `O=C(NNc1nc(Nc2ccccn2)nc(Nc2ccc(Cl)cc2Cl)n1)c1ccncc1`, the inhibition of growth at 0.0614 µM in series [12] was 92%. Further, the Activity result in [3] is on record as “Non-toxic”. In series [4], inhibition of growth (MIC) required 5.92 µg/mL (≈ 12.6 µM). As for `O=C(NNc1nc(Nc2ccc(Cl)cc2)nc(Nc2ccccn2)n1)c1ccncc1`, in [13], the inhibition of growth at 0.025 µM is 94%. The molecule further registered an MIC in [4] of 5.91 µg/mL (≈ 13.6 µM). As to `COc1ccccc1Nc1nc(NNC(=O)c2ccncc2)nc(Nc2ccccn2)n1`, in series [14], the inhibition of growth at 0.0677 µM turned out to be 81%. Consider `Cc1cccc(Nc2nc(NNC(=O)c3ccncc3)nc(Nc3ccccn3)n2)c1`, for which, in series [15], the inhibition of growth at 0.1218 µM was 74%. As to `Cc1ccc(Nc2nc(NNC(=O)c3ccncc3)nc(Nc3ccccn3)n2)cc1`, the inhibition of growth at 0.1127 µM in series [16] was determined as 77%. Turning to `O=C(NNc1nc(Nc2ccccn2)nc(Nc2ccccc2Cl)n1)c1ccncc1`, the inhibition of growth at 0.065 µM in series [17] was found to be 80%. On to `O=C(NNc1nc(Nc2cccc(Cl)c2)nc(Nc2ccccn2)n1)c1ccncc1`, for which the inhibition of growth at 0.055 µM in series [18] is 82%. For the molecule `Cc1ccccc1Nc1nc(NNC(=O)c2ccncc2)nc(Nc2ccccn2)n1`, the inhibition of growth at 0.111 µM in series [19] turned out to be 71%.

As to `O=C(NNc1nc(Nc2ccc([N+](=O)[O-])cc2)nc(Nc2ccccn2)n1)c1ccncc1`, in series [20], the inhibition of growth at 0.1211 µM was determined as 69%.
